Laboratory results as given in ChEMBL document CHEMBL3046458, “Pyraclostrobin sensitivity of baseline and fungicide exposed isolates of Pyrenophora tritici-repentis” (Crop Prot, 2012).
Converted amounts (≈) assume the structure as drawn.

Tests used:
Format in all cases: functional, organism-based
[1] = tested on: Pyrenophora tritici-repentis; assay: Antifungal activity against Pyrenophora tritici-repentis isolate Ptr 86-4 assessed as inhibition of conidia germination after 6 hr incubation; conditions: Ptr 86-4, 6 h
[2] = tested on: Pyrenophora tritici-repentis; assay: Antifungal activity against Pyrenophora tritici-repentis isolate Ptr 92 148-1-1 assessed as inhibition of conidia germination after 6 hr incubation in presence of SHAM; conditions: Ptr 92 148-1-1, 6 h
[3] = tested on: Pyrenophora tritici-repentis; assay: Antifungal activity against Pyrenophora tritici-repentis isolate Ptr 92 148-1-1 assessed as inhibition of conidia germination after 6 hr incubation; conditions: Ptr 92 148-1-1, 6 h
[4] = tested on: Pyrenophora tritici-repentis; assay: Antifungal activity against Pyrenophora tritici-repentis isolate Ptr 92 119-2-3 assessed as inhibition of conidia germination after 6 hr incubation in presence of SHAM; conditions: Ptr 92 119-2-3, 6 h
[5] = tested on: Pyrenophora tritici-repentis; assay: Antifungal activity against Pyrenophora tritici-repentis isolate Ptr 4b assessed as inhibition of conidia germination after 6 hr incubation in presence of SHAM
[6] = tested on: Pyrenophora tritici-repentis; assay: Antifungal activity against Pyrenophora tritici-repentis isolate Ptr 90 DL-22 assessed as inhibition of conidia germination after 6 hr incubation in presence of SHAM; conditions: Ptr 90 DL-22, 6 h
[7] = tested on: Pyrenophora tritici-repentis; assay: Antifungal activity against Pyrenophora tritici-repentis isolate Ptr 86-4 assessed as inhibition of conidia germination after 6 hr incubation in presence of SHAM; conditions: Ptr 86-4, 6 h
[8] = tested on: Pyrenophora tritici-repentis; assay: Antifungal activity against Pyrenophora tritici-repentis isolate Ptr 90 P7d assessed as inhibition of conidia germination after 6 hr incubation
[9] = tested on: Pyrenophora tritici-repentis; assay: Antifungal activity against Pyrenophora tritici-repentis isolate Ptr 4b assessed as inhibition of conidia germination after 6 hr incubation
[10] = tested on: Pyrenophora tritici-repentis; assay: Antifungal activity against Pyrenophora tritici-repentis isolate Ptr 92 120-2-2 assessed as inhibition of conidia germination after 6 hr incubation in presence of SHAM; conditions: Ptr 92 120-2-2, 6 h
[11] = tested on: Pyrenophora tritici-repentis; assay: Antifungal activity against Pyrenophora tritici-repentis isolate Ptr 90 DL-22 assessed as inhibition of conidia germination after 6 hr incubation; conditions: Ptr 90 DL-22, 6 h
[12] = tested on: Pyrenophora tritici-repentis; assay: Antifungal activity against Pyrenophora tritici-repentis isolate Ptr 90 P7d assessed as inhibition of conidia germination after 6 hr incubation in presence of SHAM
[13] = tested on: Pyrenophora tritici-repentis; assay: Antifungal activity against Pyrenophora tritici-repentis isolate Ptr 1A assessed as inhibition of conidia germination after 6 hr incubation in presence of SHAM
[14] = tested on: Pyrenophora tritici-repentis; assay: Antifungal activity against Pyrenophora tritici-repentis isolate Ptr 92 119-2-3 assessed as inhibition of conidia germination after 6 hr incubation; conditions: Ptr 92 119-2-3, 6 h
[15] = tested on: Pyrenophora tritici-repentis; assay: Antifungal activity against Pyrenophora tritici-repentis isolate Ptr 1A assessed as inhibition of conidia germination after 6 hr incubation
[16] = tested on: Pyrenophora tritici-repentis; assay: Antifungal activity against Pyrenophora tritici-repentis isolate Ptr 92 145-2-4 assessed as inhibition of conidia germination after 6 hr incubation in presence of SHAM; conditions: Ptr 92 145-2-4, 6 h
[17] = tested on: Pyrenophora tritici-repentis; assay: Antifungal activity against Pyrenophora tritici-repentis isolate Ptr 92 115-2-3 assessed as inhibition of conidia germination after 6 hr incubation; conditions: Ptr 92 115-2-3, 6 h
[18] = tested on: Pyrenophora tritici-repentis; assay: Antifungal activity against Pyrenophora tritici-repentis isolate Ptr 92 115-2-3 assessed as inhibition of conidia germination after 6 hr incubation in presence of SHAM; conditions: Ptr 92 115-2-3, 6 h
[19] = tested on: Pyrenophora tritici-repentis; assay: Antifungal activity against Pyrenophora tritici-repentis isolate Ptr 92 120-2-2 assessed as inhibition of conidia germination after 6 hr incubation; conditions: Ptr 92 120-2-2, 6 h
[20] = tested on: Pyrenophora tritici-repentis; assay: Antifungal activity against Pyrenophora tritici-repentis isolate Ptr 92 145-2-4 assessed as inhibition of conidia germination after 6 hr incubation; conditions: Ptr 92 145-2-4, 6 h

With `COC(=O)N(OC)c1ccccc1COc1ccn(-c2ccc(Cl)cc2)n1` [PYRACLOSTROBIN] the EC50 [1] was 3.4 ng/mL (≈ 0.00877 µM), the EC50 [2] was 2.3 ng/mL and the EC50 [3] was 5.1 ng/mL (≈ 0.0132 µM). The EC50 [4] was 2 ng/mL, the EC50 [5] was 1.6 ng/mL and the EC50 [6] was 1.6 ng/mL. It also gave an EC50 [7] of 1.6 ng/mL, an EC50 [8] of 3.3 ng/mL (≈ 0.00851 µM) and an EC50 [9] of 3.8 ng/mL (≈ 0.0098 µM). It also gave an EC50 [10] of 2.1 ng/mL, an EC50 [11] of 11.8 ng/mL (≈ 0.0304 µM) and an EC50 [12] of 1.6 ng/mL. It also gave an EC50 [13] of 2.2 ng/mL, an EC50 [14] of 3.8 ng/mL (≈ 0.0098 µM) and an EC50 [15] of 9.9 ng/mL (≈ 0.0255 µM). It also gave an EC50 [16] of 1.5 ng/mL, an EC50 [17] of 12.4 ng/mL (≈ 0.032 µM) and an EC50 [18] of 2.3 ng/mL. The EC50 [19] was 8.1 ng/mL (≈ 0.0209 µM) and the EC50 [20] was 3.8 ng/mL (≈ 0.0098 µM).
